{"source": "patent US20050171084A1", "about": "“Methods of treatment with lxr modulators” (priority 2002, published 2005)", "key": {"[1]": {"system": "rat pheochromocytoma cells", "settings": "Schmidt, et al. (19); cited from earlier work"}, "[2]": {"system": "Hippocampal neurons", "assay": "Neurite outgrowth in hippocampal neurons", "assay_type": "cell-based, rat", "settings": "HC neurons, 48 hours, SEM in parentheses", "method": "Hippocampal neurons: The hippocampi of gestational day 18 rat embryos were dissected out, incubated in trypsin (0.08%, 30 min at 37° C.) and dissociated mechanically (16). Hippocampal cells were resuspended in neurobasal medium supplemented with B27, anti-oxidants, 1 mM glutamine, 25 μM glutamate, 1 mM pyruvate. For outgrowth assays, cells were plated at a density of 3000 cells/well into 96 well dishes that had previously been coated with poly-D-lysine followed by 10% FCS and cultured for 48 hours.\nThe test compound was solubilised in DMSO and added to culture medium at time of cell plating at a dilution of 1:1000. Vehicle only (1:1000) was added to culture medium of untreated controls. Cells were fixed with 4% paraformaldehyde for 1 hour on ice, washed with PBS and stained using Coomassie. Assays were quantified using a KS300 image analysis system (Imaging Associates, UK). For each cell measured, the length from the edge of the cell to the end of the longest neurite was measured for 100 cells/well for each treatment in triplicate. All data are means and SEM pooled from three independent experiments. Results are expressed as a percentage of the length of neurites of cells treated with vehicle alone."}, "[3]": {"target": "T1, LXRβ protein (Homo sapiens, UniProt P55055)", "T1 sequence (P55055 1-460)": "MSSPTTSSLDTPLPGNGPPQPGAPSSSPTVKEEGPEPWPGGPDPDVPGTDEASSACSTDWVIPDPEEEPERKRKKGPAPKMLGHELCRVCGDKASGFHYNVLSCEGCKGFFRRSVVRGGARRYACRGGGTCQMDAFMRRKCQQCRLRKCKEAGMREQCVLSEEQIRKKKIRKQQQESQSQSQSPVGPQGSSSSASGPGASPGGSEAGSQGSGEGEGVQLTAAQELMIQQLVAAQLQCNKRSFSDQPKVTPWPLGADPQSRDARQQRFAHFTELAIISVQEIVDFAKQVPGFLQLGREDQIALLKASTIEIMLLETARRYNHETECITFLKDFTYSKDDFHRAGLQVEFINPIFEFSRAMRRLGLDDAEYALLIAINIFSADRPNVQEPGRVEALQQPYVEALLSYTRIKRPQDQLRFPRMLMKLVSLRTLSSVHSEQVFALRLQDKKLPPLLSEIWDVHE", "settings": "1 μM; over a background reading of 10000 fluorescence units; cited from earlier work"}}}
{"smiles": "CCCCCCCCCCCCCCOc1ccc(C(=O)O)o1", "note": "[5-tetradecyloxy-2-furancarboxylic acid]", "values": [{"measurement": "neuronal differentiation", "setting": "[1]", "result": "induced neuronal differentiation"}]}
{"smiles": "CC(C)CC[C@@H](O)[C@@H](C)[C@H]1CC[C@H]2[C@@H]3CC=C4C[C@@H](O)CC[C@]4(C)[C@H]3CC[C@]12C", "note": "[22(R) hydroxychol., 22(R)-hydroxycholesterol, reference compound]", "values": [{"measurement": "length of longest neurite, percentage of cells treated with vehicle alone", "setting": "[2]; 0.3 μm test compound", "result": "115.9 (6.02) %"}, {"measurement": "length of longest neurite, percentage of cells treated with vehicle alone", "setting": "[2]; 1.0 μm test compound", "result": "116 (7.45) %"}, {"measurement": "length of longest neurite, percentage of cells treated with vehicle alone", "setting": "[2]; 3.0 μm test compound", "result": "129.9 (4.12) %"}, {"measurement": "length of longest neurite, percentage of cells treated with vehicle alone", "setting": "[2]; 10.0 μm test compound", "result": "127.9 (6.18) %"}, {"measurement": "neuronal differentiation", "setting": "[1]", "result": "induced neuronal differentiation"}]}
{"smiles": "C[C@H](CC[C@@H]1OC1(C)C)[C@H]1CC[C@H]2[C@@H]3CC=C4C[C@@H](O)CC[C@]4(C)[C@H]3CC[C@]12C", "note": "[24(S), 25-epoxycholesterol]", "values": [{"measurement": "fluorescence reading", "setting": "[3]", "result": 20000, "unit": "fluorescence units"}]}
